The record followed here is US8895547B2, “Substituted phenyl-oxathiazine derivatives, method for producing them, drugs containing said compounds and the use thereof” (Sanofi, priority 2011, dated 2014).

A word on the IC50: it is the concentration that inhibits the measured activity by half. Low readings indicate greater potency, high ones weaker potency.

In the test the target is T1, human 11β-HSD1 (Homo sapiens, UniProt P28845).
T1 construct: host or cells: microsome fraction
Put plainly: Enzymatic 11beta-HSD1 test (SPA-based detection). To be noted: human 11β-HSD1 microsome fraction, [1,2-3H]-cortisone, NADPH, 37° C. 1 hour. It is filed as biochemical. The essentials: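 Scintillation proximity detection: anti-cortisol antibody on SPA-PVT beads captured tritiated cortisol. The stop mix also contained 0.01 mM SSR110887 and was equilibrated 1 h at room temperature before counting. Cortisol came from [1,2-3H]-cortisone ([…]), turned over by human 11β-HSD1 microsomal protein (0.2 µg) with 0.25 mM NADPH in HEPES buffer, 37 °C, 1 h.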

T1 sequence (P28845 whole entry): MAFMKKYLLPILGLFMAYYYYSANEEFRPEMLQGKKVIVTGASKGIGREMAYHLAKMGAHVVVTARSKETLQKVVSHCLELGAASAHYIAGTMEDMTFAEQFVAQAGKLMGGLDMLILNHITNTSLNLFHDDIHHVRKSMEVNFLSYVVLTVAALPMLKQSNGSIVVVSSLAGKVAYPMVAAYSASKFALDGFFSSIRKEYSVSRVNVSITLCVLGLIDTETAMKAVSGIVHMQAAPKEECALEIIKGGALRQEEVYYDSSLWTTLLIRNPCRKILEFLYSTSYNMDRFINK

In turn, `CC1(C)OC(N[C@@H](CCO)c2ccccc2F)=NS(=O)(=O)C1c1ccc(-c2ccccc2)cc1` (stereo partly drawn) [Example 51, (S)-3-(5-Biphenyl-4-yl-6,6-dimethyl-4,4-dioxo-5,6-dihydro-4H-4lambda6-[1,4,3]oxathiazin-2-ylamino)-3-(2-fluorophenyl)-propan-1-ol] displayed an IC50 of 15 nM. Consider `CC(C)(C)c1ccc(C2(C)C(C)(C)OC(N[C@@H](CCO)c3ccccc3)=NS2(=O)=O)cc1` (stereo partly drawn) [Compound 62, (S)-3-[5-(4-tert-Butylphenyl)-5,6,6-trimethyl-4,4-dioxo-5,6-dihydro-4H-4lambda6-[1,4,3]oxathiazin-2-ylamino]-3-phenylpropan-1-ol], for which the concentration for half-maximal inhibition (IC50) was 47 nM.

The compound `C[C@H](NC1=NS(=O)(=O)[C@@H](c2ccc(-c3cccc(C(N)=O)c3)cc2)C(C)(C)O1)c1ccccc1F` [Example 174, 4′-{(S)-2-[(S)-1-(2-fluorophenyl)-ethylamino]-6,6-dimethyl-4,4-dioxo-5,6-dihydro-4H-4lambda6-[1,4,3]oxathiazin-5-yl}-biphenyl-3-carboxamide] yielded an IC50 of 18 nM. Compared with the last compound, the IC50 is about 2.6-fold lower. Next, `CC1(C)OC(N[C@@H](CCO)c2ccccc2)=NS(=O)(=O)C1c1ccc(OCc2ccccc2)cc1` (stereo partly drawn) [Example 4, (S)-3-[5-(4-Benzyloxy-phenyl)-6,6-dimethyl-4,4-dioxo-5,6-dihydro-4H-4lambda6-[1,4,3]oxathiazin-2-ylamino]-3-phenyl-propan-1-ol]: 14 nM; `CC1(C)OC(N[C@@H](CCO)c2ccccc2)=NS(=O)(=O)C1c1cccc(-c2cncnc2)c1` (stereo partly drawn) [Example 14, (S)-3-[6,6-Dimethyl-4,4-dioxo-5-(3-pyrimidin-5-yl-phenyl)-5,6-dihydro-4H-4lambda6-[1,4,3]oxathiazin-2-ylamino]-3-phenyl-propan-1-ol]: 32 nM; `CN(C)C(=O)c1ccc(-c2ccc(C3C(C)(C)OC(N[C@@H](CCO)c4ccccc4F)=NS3(=O)=O)cc2)cc1` (stereo partly drawn) [Example 112, 4′-{2-[(S)-1-(2-fluorophenyl)-3-hydroxy-propylamino]-6,6-dimethyl-4,4-dioxo-5,6-dihydro-4H-4lambda6-[1,4,3]oxathiazin-5-yl}-biphenyl-4-carboxylic acid dimethylamide]: 7 nM.

`CC1(C)OC(N[C@@H](CCO)c2ccccc2F)=NS(=O)(=O)C1c1ccc(-c2ccccc2)cc1` (single isomer, unassigned) [Example 69] showed an IC50 of 13 nM. Next, `C[C@H](NC1=NS(=O)(=O)[C@@H](c2ccc(-c3ccnc(C#N)c3)cc2)C(C)(C)O1)c1ccccc1F` [Example 186, 4-(4-{(S)-2-[(S)-1-(2-fluorophenyl)-ethylamino]-6,6-dimethyl-4,4-dioxo-5,6-dihydro-4H-4lambda6-[1,4,3]oxathiazin-5-yl}-phenyl)-pyridine-2-carbonitrile]: 11 nM; `CC1(C)OC(N[C@@H](CCO)c2ccccc2F)=NS(=O)(=O)C1c1ccc(-c2ccc(C(N)=O)cc2)cc1` (stereo partly drawn) [Example 120, 4′-{2-[(S)-1-(2-fluorophenyl)-3-hydroxy-propylamino]-6,6-dimethyl-4,4-dioxo-5,6-dihydro-4H-4lambda6-[1,4,3]oxathiazin-5-yl}-biphenyl-4-carboxylic acid amide]: 6 nM; `CC1(C)OC(N[C@@H](CCO)c2cc(F)ccc2F)=NS(=O)(=O)C1c1ccc(-c2ccccc2)cc1` (stereo partly drawn) [Example 98, (S)-3-(5-Biphenyl-4-yl-6,6-dimethyl-4,4-dioxo-5,6-dihydro-4H-4lambda6-[1,4,3]oxathiazin-2-ylamino)-3-(2,5-difluorophenyl)-propan-1-ol]: 12 nM. Next, `CC1(C)OC(N[C@@H](CCO)c2ccccc2F)=NS(=O)(=O)C1c1ccc(N2CCN(CCO)CC2)cc1` (some centres unmarked) [Example 135]: 59 nM; `CC1(C)OC(N[C@@H](CCO)c2ccccc2)=NS(=O)(=O)C1(F)c1cccc(Br)c1` (stereo partly drawn) [Example 50, (S)-3-[5-(3-Bromophenyl)-5-fluoro-6,6-dimethyl-4,4-dioxo-5,6-dihydro-4H-4lambda6-[1,4,3]oxathiazin-2-ylamino]-3-phenyl-propan-1-ol]: 40 nM; `C[C@H](NC1=NS(=O)(=O)C(c2cccc(Br)c2)C(C)(C)O1)c1ccccc1F` (stereo partly drawn) [Example 27, [5-(3-Bromophenyl)-6,6-dimethyl-4,4-dioxo-5,6-dihydro-4H-4lambda6-[1,4,3]oxathiazin-2-yl]-[(S)-1-(2-fluorophenyl)-ethyl]-amine]: 13 nM. The value for `CC1(C)OC(N[C@@H](CCO)c2ccccc2F)=NS(=O)(=O)C1c1ccc(-c2cc[nH]n2)cc1` (stereo partly drawn) [Example 128, (S)-3-{6,6-Dimethyl-4,4-dioxo-5-[4-(1H-pyrazol-3-yl)-phenyl]-5,6-dihydro-4H-4lambda6-[1,4,3]oxathiazin-2-ylamino}-3-(2-fluorophenyl)-propan-1-ol] was 10 nM. `CC1(C)OC(N[C@@H](CCO)c2ccccc2)=NS(=O)(=O)C1c1cccc(C(F)(F)F)c1` (stereo partly drawn) [Compound 21, (S)-3-[6,6-Dimethyl-4,4-dioxo-5-(3-trifluoromethylphenyl)-5,6-dihydro-4H-4lambda6-[1,4,3]oxathiazin-2-ylamino]-3-phenylpropan-1-ol] displayed an IC50 of 22 nM. For the compound `CC1(C)OC(N[C@@H](CCO)c2ccccc2F)=NS(=O)(=O)C1c1ccc(-c2ccc(Cl)s2)cc1` (stereo partly drawn) [Example 91, (S)-3-{5-[4-(5-Chlorothiophen-2-yl)-phenyl]-6,6-dimethyl-4,4-dioxo-5,6-dihydro-4H-4lambda6-[1,4,3]oxathiazin-2-ylamino}-3-(2-fluorophenyl)-propan-1-ol], the IC50 came out at 11 nM. This IC50 is about 2-fold lower than that of the compound before. The value for `COc1cccc(C2C(C)(C)OC(NC3CCCCC3)=NS2(=O)=O)c1` (centres unmarked) [Example 23, Cyclohexyl-[5-(3-methoxy-phenyl)-6,6-dimethyl-4,4-dioxo-5,6-dihydro-4H-4lambda6-[1,4,3]oxathiazin-2-yl]-amine] was 114 nM; that for `CC1(C)OC(N[C@@H](CCO)c2ccccc2)=NS(=O)(=O)C1c1cccc(OCc2ccccc2)c1` (stereo partly drawn) [Example 24, (S)-3-[5-(3-Benzyloxy-phenyl)-6,6-dimethyl-4,4-dioxo-5,6-dihydro-4H-4lambda6-[1,4,3]oxathiazin-2-ylamino]-3-phenyl-propan-1-ol] was 21 nM; that for `CN(C)c1cccc(-c2ccc(C3C(C)(C)OC(N[C@@H](CCO)c4ccccc4F)=NS3(=O)=O)cc2)n1` (stereo partly drawn) [Example 126, (S)-3-{5-[4-(6-Dimethylamino-pyridin-2-yl)-phenyl]-6,6-dimethyl-4,4-dioxo-5,6-dihydro-4H-4lambda6-[1,4,3]oxathiazin-2-ylamino}-3-(2-fluorophenyl)-propan-1-ol] was 19 nM. In the case of `C[C@H](NC1=NS(=O)(=O)C(c2ccc(-c3ccccc3CN(C)C)cc2)C(C)(C)O1)c1ccccc1F` (stereo partly drawn) [Example 173, [5-(2′-Dimethylaminomethyl-biphenyl-4-yl)-6,6-dimethyl-4,4-dioxo-5,6-dihydro-4H-4lambda6-[1,4,3]oxathiazin-2-yl]-[(S)-1-(2-fluorophenyl)-ethyl]-amin], the midpoint of inhibition, the IC50, lay at 137 nM. Regarding `C[C@H](NC1=NS(=O)(=O)C(c2cccc(C(=O)N3CCOCC3)c2)C(C)(C)O1)c1ccccc1F` (stereo partly drawn) [Example 192, (3-{2-[(S)-1-(2-fluorophenyl)-ethylamino]-6,6-dimethyl-4,4-dioxo-5,6-dihydro-4H-4lambda6-[1,4,3]oxathiazin-5-yl}-phenyl)-morpholin-4-yl-methanone], the midpoint of inhibition, the IC50, lay at 252 nM. The value for `CC1(C)OC(N[C@@H](CCO)c2ccccc2F)=NS(=O)(=O)C1(C)c1cccc(-c2ccccc2)c1` (single isomer, unassigned) [Example 74] was 12 nM. Next, `CC1(C)OC(N[C@@H](CCO)c2ccccc2)=NS(=O)(=O)C1(C)c1cccc(N2CCCC2)c1` (stereo partly drawn) [Compound 39, (S)-3-Phenyl-3-[5,6,6-trimethyl-4,4-dioxo-5-(3-pyrrolidin-1-ylphenyl)-5,6-dihydro-4H-4lambda6-[1,4,3]oxathiazin-2-ylamino]propan-1-ol]: 24 nM; `CC1(C)OC(N[C@@H](CCO)c2ccccc2F)=NS(=O)(=O)C1(C)c1cccc(-c2ccc(F)cc2)c1` (stereo partly drawn) [Example 71, (S)-3-[5-(4′-Fluorobiphenyl-3-yl)-5,6,6-trimethyl-4,4-dioxo-5,6-dihydro-4H-4lambda6-[1,4,3]oxathiazin-2-ylamino]-3-(2-fluorophenyl)-propan-1-ol]: 22 nM; `C[C@H](NC1=NS(=O)(=O)C(c2ccc(-c3ccccc3)nc2)C(C)(C)O1)c1ccccc1F` (stereo partly drawn) [Example 164, [6,6-Dimethyl-4,4-dioxo-5-(6-phenyl-pyridin-3-yl)-5,6-dihydro-4H-4lambda6-[1,4,3]oxathiazin-2-yl]-[(S)-1-(2-fluorophenyl)-ethyl]-amine]: 27 nM. Compound `C[C@H](NC1=NS(=O)(=O)C(c2ccc(-c3ccnc(C#N)c3)nc2)C(C)(C)O1)c1ccccc1F` (stereo partly drawn) [Example 190, 5-{2-[(S)-1-(2-fluorophenyl)-ethylamino]-6,6-dimethyl-4,4-dioxo-5,6-dihydro-4H-4lambda6-[1,4,3]oxathiazin-5-yl}-[2,4′]bipyridinyl-2′-carbonitril] showed an IC50 of 331 nM.

`CN1CCN(CCOc2ccc(C3C(C)(C)OC(N[C@@H](CCO)c4ccccc4F)=NS3(=O)=O)cc2)CC1` (stereo partly drawn) [Example 137, (S)-3-(6,6-Dimethyl-5-{4-[2-(4-methyl-piperazin-1-yl)-ethoxy]-phenyl}-4,4-dioxo-5,6-dihydro-4H-4lambda6-[1,4,3]oxathiazin-2-ylamino)-3-(2-fluoro-phenyl)-propan-1-ol] came in with an IC50 of 70 nM. `C[C@H](NC1=NS(=O)(=O)C(c2ccc(-c3cnc(N)nc3)cc2)C(C)(C)O1)c1ccccc1F` (stereo partly drawn) [Example 196, {5-[4-(2-Amino-pyrimidin-5-yl)-phenyl]-6,6-dimethyl-4,4-dioxo-5,6-dihydro-4H-4lambda6-[1,4,3]oxathiazin-2-yl}-[(S)-1-(2-fluorophenyl)-ethyl]-amine] displayed an IC50 of 7 nM.

The compound `CC1(C)OC(N[C@@H](CCO)c2ccccc2F)=NS(=O)(=O)C1c1ccc(-c2ccccc2C#N)cc1` (some centres unmarked) [Example 87] showed an IC50 of 7 nM.
